Measured values published in PubChem BioAssay AID330 (DTP/NCI, 2004).
Where “and” joins values, the source holds several entries; their conditions need not be identical. Identical values can stand only once. Toxic doses and inconclusive results are not listed.

System: P388 leukemia ip, CD2F1 mice, survival T/C
Experiment: NCI In Vivo Anticancer Drug Screen. Data for tumor model P388 Leukemia (intraperitoneal) in CD2F1 (CDF1) mice
Conditions: endpoint: median survival time, higher = longer survival
In short: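 Mice carrying the transplanted tumor received test compound or vehicle. Survival was recorded in each group, and the value is the treated-group measurement divided by that of the vehicle-treated control group.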

[1] = dose: 50.0 mg/kg/injection, schedule: Q01DX005 (ip), vehicle: saline with Tween-80
[2] = dose: 12.5 mg/kg/injection, schedule: Q01DX009 (ip), vehicle: saline with Tween-80
[3] = dose: 60.0 mg/kg/injection, schedule: Q01DX005 (ip), vehicle: saline with Tween-80
[4] = dose: 120.0 mg/kg/injection, schedule: Q01DX005 (ip), vehicle: saline with Tween-80
[5] = dose: 240.0 mg/kg/injection, schedule: Q01DX005 (ip), vehicle: saline with Tween-80
[6] = dose: 50.0 mg/kg/injection, schedule: Q01DX005 (ip), vehicle: Klucel (hydroxypropylcellulose) (HPC)
[7] = dose: 100.0 mg/kg/injection, schedule: Q01DX005 (ip), vehicle: Klucel (hydroxypropylcellulose) (HPC)
[8] = dose: 100.0 mg/kg/injection, schedule: Q04DX002 (ip), vehicle: saline with Tween-80
[9] = dose: 200.0 mg/kg/injection, schedule: Q04DX002 (ip), vehicle: saline with Tween-80
[10] = dose: 50.0 mg/kg/injection, schedule: Q01DX009 (ip), vehicle: saline
[11] = dose: 100.0 mg/kg/injection, schedule: Q01DX009 (ip), vehicle: saline

CCCN=C(N)c1ccc(N=C(N)c2ccc(N=C(N)c3ccc(C(N)=NCCC)cc3)cc2)cc1
T/C (dose: 0.08 mg/kg/injection, schedule: Q01DX009 (ip), vehicle: saline): 100 % of control | T/C (dose: 0.15 mg/kg/injection, schedule: Q01DX009 (ip), vehicle: saline): 100 % of control | T/C (dose: 0.3 mg/kg/injection, schedule: Q01DX009 (ip), vehicle: saline): 110 % of control | T/C (dose: 1.25 mg/kg/injection, schedule: Q01DX009 (ip), vehicle: saline): 154 % of control | T/C (dose: 2.5 mg/kg/injection, schedule: Q01DX009 (ip), vehicle: saline): 118 % of control | T/C (dose: 5.0 mg/kg/injection, schedule: Q04DX003 (ip), vehicle: saline with Tween-80): 95 % of control | T/C (dose: 10.0 mg/kg/injection, schedule: Q01DX009 (ip), vehicle: saline): 150 % of control | T/C (dose: 10.0 mg/kg/injection, schedule: Q04DX003 (ip), vehicle: saline with Tween-80): 100 % of control | T/C (dose: 15.0 mg/kg/injection, schedule: Q01DX009 (ip), vehicle: saline): 172 % of control | T/C (dose: 20.0 mg/kg/injection, schedule: Q01DX009 (ip), vehicle: saline with Tween-80): 200 % of control | T/C (dose: 20.0 mg/kg/injection, schedule: Q04DX003 (ip), vehicle: saline with Tween-80): 100 % of control

S=c1n(-c2ccc(Cl)cc2)c2nc3ccccc3nc(/c2=N\Nc2ccc(Br)cc2)n1-c1ccccn1
T/C [1]: 101 % of control

O=C1C2(Cl)C3(Cl)C4(Cl)C(Cl)(Cl)C5(Cl)[C@]3(Cl)C1(Cl)[C@]5(Cl)C24Cl (stereo partly specified)
T/C (dose: 12.5 mg/kg/injection, schedule: Q01DX009 (ip), vehicle: Klucel (hydroxypropylcellulose) (HPC)): 110 % of control | T/C [2]: 94 % of control | T/C (dose: 25.0 mg/kg/injection, schedule: Q01DX009 (ip), vehicle: Klucel (hydroxypropylcellulose) (HPC)): 112 % of control | T/C (dose: 25.0 mg/kg/injection, schedule: Q01DX009 (ip), vehicle: saline with Tween-80): 87 % of control

CC1(C)OC(C2SCCS2)C2OC(=O)C(O[Si](C)(C)C(C)(C)C)C2O1 (stereo unspecified)
T/C [3]: 99 % of control | T/C [4]: 93 % of control | T/C [5]: 93 % of control

C=C(C)C(=NC(C)(C)C)N1CCCCC1
T/C [6]: 100 % of control | T/C [7]: 102 % of control

C/C(=N\NC(=S)N1CCN(c2ccccn2)CC1)c1nccs1
T/C (dose: 6.25 mg/kg/injection, schedule: Q01DX005 (ip), vehicle: saline with Tween-80): 105 % of control | T/C (dose: 12.5 mg/kg/injection, schedule: Q01DX005 (ip), vehicle: saline with Tween-80): 113 % of control

Cc1cccc(=O)[n-]1.Cc1cccc(=O)[n-]1.Cc1cccc(=O)[n-]1.Cc1cccc(=O)[n-]1.[Mo+2].[Mo+2]
T/C (dose: 100.0 mg/kg/injection, schedule: Q04DX002 (ip), vehicle: Klucel (hydroxypropylcellulose) (HPC)): 102 % of control | T/C (dose: 200.0 mg/kg/injection, schedule: Q04DX002 (ip), vehicle: Klucel (hydroxypropylcellulose) (HPC)): 98 % of control | T/C (dose: 400.0 mg/kg/injection, schedule: Q04DX002 (ip), vehicle: Klucel (hydroxypropylcellulose) (HPC)): 100 % of control

CCC1=C[C@H]2CN(CCc3c([nH]c4ccccc34)[C@@](C(=O)OC)(c3cc4c(cc3OC)N(C)[C@H]3[C@@](O)(C(=O)NN)[C@H](O)[C@]5(CC)C=CCN6CC[C@]43[C@@H]65)C2)C1
T/C (dose: 0.5 mg/kg/injection, schedule: Q01DX001 (ip), vehicle: water): 174 % of control | T/C (dose: 1.0 mg/kg/injection, schedule: Q01DX001 (ip), vehicle: water): 164 % of control and 175 % of control | T/C (dose: 2.0 mg/kg/injection, schedule: Q01DX001 (ip), vehicle: water): 183 % of control and 193 % of control

CCOC(=O)C(CCCCC(NC(C)=O)(C(=O)OCC)C(=O)OCC)(NC(C)=O)C(=O)OCC
T/C (dose: 100.0 mg/kg/injection, schedule: Q04DX003 (ip), vehicle: saline with Tween-80): 100 % of control | T/C (dose: 200.0 mg/kg/injection, schedule: Q04DX003 (ip), vehicle: saline with Tween-80): 100 % of control | T/C (dose: 400.0 mg/kg/injection, schedule: Q04DX003 (ip), vehicle: saline with Tween-80): 95 % of control

CCOC(=O)/C(=C(/[S-])SC)[n+]1ccc(C)cc1
T/C [8]: 101 % of control | T/C [9]: 99 % of control

CC(C)=CC(=O)C1=C(O)C(=O)OC1
T/C (dose: 50.0 mg/kg/injection, schedule: Q01DX009 (ip), vehicle: saline with Tween-80): 109 % of control | T/C (dose: 100.0 mg/kg/injection, schedule: Q01DX009 (ip), vehicle: saline with Tween-80): 108 % of control | T/C (dose: 200.0 mg/kg/injection, schedule: Q01DX009 (ip), vehicle: saline with Tween-80): 107 % of control

COc1cccc(C2OC3=C(Nc4ccc([N+](=O)[O-])cc4N3)C2=O)c1 (stereo unspecified)
T/C [6]: 102 % of control | T/C [7]: 101 % of control | T/C (dose: 200.0 mg/kg/injection, schedule: Q01DX005 (ip), vehicle: Klucel (hydroxypropylcellulose) (HPC)): 96 % of control

CSc1c(C)n2c3c(cccc13)CCC2
T/C [3]: 108 % of control | T/C [4]: 96 % of control | T/C [5]: 100 % of control

NCCCO[C@H]1CO[C@H]2[C@@H]1OC[C@H]2OCCCN
T/C (dose: 50.0 mg/kg/injection, schedule: Q01DX005 (ip), vehicle: saline): 100 % of control | T/C (dose: 100.0 mg/kg/injection, schedule: Q01DX005 (ip), vehicle: saline): 102 % of control

c1ccc2c(c1)nnn1c3cnccc3nc21
T/C [2]: 111 % of control

Cn1nnc(-c2ccccc2)n1
T/C [8]: 107 % of control | T/C [9]: 102 % of control | T/C (dose: 400.0 mg/kg/injection, schedule: Q04DX002 (ip), vehicle: saline with Tween-80): 112 % of control

COc1ccc(C(C)=O)cc1CSC(=S)N1CCSCC1
T/C (dose: 15.0 mg/kg/injection, schedule: Q01DX005 (ip), vehicle: saline with Tween-80): 104 % of control | T/C (dose: 30.0 mg/kg/injection, schedule: Q01DX005 (ip), vehicle: saline with Tween-80): 99 % of control | T/C [3]: 90 % of control and 92 % of control | T/C [5]: 88 % of control

c1cc2cc3c(cc2[nH]1)OCO3
T/C (dose: 50.0 mg/kg/injection, schedule: Q01DX005 (ip), vehicle: Klucel + Tween-80): 95 % of control | T/C (dose: 100.0 mg/kg/injection, schedule: Q01DX005 (ip), vehicle: Klucel + Tween-80): 90 % of control | T/C (dose: 200.0 mg/kg/injection, schedule: Q01DX005 (ip), vehicle: Klucel + Tween-80): 95 % of control

CC(C)NC1CC2CCCCC2CC1c1ccccc1 (stereo unspecified)
T/C (dose: 100.0 mg/kg/injection, schedule: Q01DX001 (ip), vehicle: Klucel (hydroxypropylcellulose) (HPC)): 93 % of control | T/C (dose: 200.0 mg/kg/injection, schedule: Q01DX001 (ip), vehicle: Klucel (hydroxypropylcellulose) (HPC)): 93 % of control | T/C (dose: 400.0 mg/kg/injection, schedule: Q01DX001 (ip), vehicle: Klucel (hydroxypropylcellulose) (HPC)): 88 % of control

CCOC(=N)N1[C@@H]2CCCC[C@@H]21
T/C (dose: 100.0 mg/kg/injection, schedule: Q04DX002 (ip), vehicle: saline): 101 % of control | T/C (dose: 200.0 mg/kg/injection, schedule: Q04DX002 (ip), vehicle: saline): 109 % of control | T/C (dose: 400.0 mg/kg/injection, schedule: Q04DX002 (ip), vehicle: saline): 120 % of control

CCN1C(=O)/C(=C/C=C/N(C)c2ccccc2)SC1=S
T/C [10]: 112 % of control | T/C [11]: 103 % of control

Cn1ccn(C)c1=S
T/C [10]: 107 % of control | T/C [11]: 97 % of control | T/C (dose: 200.0 mg/kg/injection, schedule: Q01DX009 (ip), vehicle: saline): 101 % of control

BrC=C(Br)Br
T/C [1]: 104 % of control | T/C (dose: 100.0 mg/kg/injection, schedule: Q01DX005 (ip), vehicle: saline with Tween-80): 100 % of control | T/C (dose: 200.0 mg/kg/injection, schedule: Q01DX005 (ip), vehicle: saline with Tween-80): 95 % of control

CCOC(=N)c1ccc(C(=N)OCC)cc1
T/C (dose: 60.0 mg/kg/injection, schedule: Q01DX005 (ip), vehicle: saline): 97 % of control | T/C (dose: 120.0 mg/kg/injection, schedule: Q01DX005 (ip), vehicle: saline): 100 % of control | T/C (dose: 240.0 mg/kg/injection, schedule: Q01DX005 (ip), vehicle: saline): 104 % of control

CCn1c2nc(=O)[nH]c(=O)c-2[n+]([O-])c2ccccc21
T/C (dose: 12.5 mg/kg/injection, schedule: Q01DX001 (ip), vehicle: saline with Tween-80): 96 % of control | T/C (dose: 25.0 mg/kg/injection, schedule: Q01DX001 (ip), vehicle: saline with Tween-80): 96 % of control | T/C (dose: 50.0 mg/kg/injection, schedule: Q01DX001 (ip), vehicle: saline with Tween-80): 96 % of control
